Patent US7671080B2, “1-benzylindole-2-carboxamide derivatives” (N.V. Organon, priority 2005, dated 2010)

Target: T1, human cannabinoid CB1 receptor (Homo sapiens, UniProt P21554)
T1 construct: expressed in transfected cells; co-transfected with AP1-luciferase reporter
Experiment: In-vitro determination of efficacy and potency at the human CB1 receptor expressed in CHO cells (AP1-luciferase reporter, antagonism of CP-55,940)
Type: cell-based
Experimental: In-Vitro Determination of Efficacy and Potency at the Human CB1 Receptor Expressed in CHO Cells
Chinese hamster ovary (CHO) cells, which stably express the human cannabinoid CB1 receptor were co-transfected with a luciferase reporter gene which is under the regulatory control of an AP1-response element (AP1 luc). The cells were suspended in commercially available DMEM/F12 nut mix without phenol red, containing penicillin/streptomycin (50 U/50 μg/ml) and fungizone (1 μg/ml) before being seeded into white walled, white bottomed 96 well plates at a density of 3×10^4 cells per well (100 μl final volume) and incubated overnight (approximately 18 hrs at 37° C., 5% CO2 in air) prior to assay.
10 μl of each dilution was added to the relevant wells in the cell plate to give a final concentration range of 10 μM to 0.1 nM.
Plates were incubated for 5 hours at 37° C. before addition of 100 μl LucLite reagent to each well (reconstituted as per manufacturer's instructions). Plates were sealed with Top Seal and counted on the Packard TopCount (single photon counting, 0.01 minute count time, no count delay).
Following stimulation of the CB1 receptor, luciferase expression is enhanced and this can be measured as an increase in enzyme activity. This reporter system is therefore used as a functional test to evaluate the potency of antagonist compounds at the CB1 receptor. Data was analysed using curve fitting and a minimum sum of squares method to produce pEC50 values.

T1 sequence (P21554 whole entry): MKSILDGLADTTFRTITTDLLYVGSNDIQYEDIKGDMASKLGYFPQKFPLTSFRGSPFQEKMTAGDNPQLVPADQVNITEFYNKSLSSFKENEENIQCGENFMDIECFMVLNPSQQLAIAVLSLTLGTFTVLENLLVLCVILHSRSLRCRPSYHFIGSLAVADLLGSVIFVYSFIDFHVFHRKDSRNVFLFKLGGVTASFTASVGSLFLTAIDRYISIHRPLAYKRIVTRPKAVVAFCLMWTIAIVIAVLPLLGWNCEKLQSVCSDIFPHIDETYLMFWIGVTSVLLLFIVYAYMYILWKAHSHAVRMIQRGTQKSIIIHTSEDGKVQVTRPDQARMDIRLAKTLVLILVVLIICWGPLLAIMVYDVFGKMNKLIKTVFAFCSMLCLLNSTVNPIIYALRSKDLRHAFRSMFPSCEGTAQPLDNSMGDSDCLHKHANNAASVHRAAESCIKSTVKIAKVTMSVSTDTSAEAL

Row | SMILES | IC50
1 | N#Cc1ccc2c(c1)cc(C(=O)NC[C@H]1CCCC[C@@H]1O)n2Cc1cccc(OC(F)(F)F)c1 (relative stereo) [Example 34, trans-5-Cyano-1-(3-trifluoromethoxybenzyl)-1H-indole-2-carboxylic acid (2-hydroxy-cyclohexylmethyl)amide] | < 1 nM
2 | N#Cc1ccc2c(c1)cc(C(=O)NCC1(CO)CCCC1)n2Cc1cccc(OC(F)(F)F)c1 [Example 68, 5-Cyano-1-(3-trifluoromethoxybenzyl)-1H-indole-2-carboxylic acid (1-hydroxymethyicyclopentylmethyl)amide] | < 1 nM
3 | CC(C)OCCCNC(=O)c1cc2cc(Cl)ccc2n1Cc1cccc(OC(F)(F)F)c1 [Example 15, 5-Chloro-1-(3-trifluoromethoxybenzyl)-1H-indole-2-carboxylic acid (3-isopropoxypropyl)amide] | 10 to 100 nM
4 | Cc1ccc(C(F)(F)F)cc1Cn1c(C(=O)NCCC(C)(C)O)cc2cc(C#N)ccc21 [Example 64, 5-Cyano-1-(2-methyl-5-trifluoromethylbenzyl)-1H-indole-2-carboxylic acid (3-hydroxy-3-methylbutyl)amide] | 1 to 10 nM
5 | N#Cc1ccc2c(c1)cc(C(=O)N[C@@H]1CCC[C@H]1O)n2Cc1cccc(OC(F)(F)F)c1 (relative stereo) [Example 54, trans-5-Cyano-1-(3-trifluoromethoxybenzyl)-1H-indole-2-carboxylic acid (2-hydroxy-cyclopentyl)amide] | 1 to 10 nM
6 | N#Cc1ccc2c(c1)cc(C(=O)NCC1(O)CCCC1)n2Cc1cccc(OC(F)(F)F)c1 [Example 65, 5-Cyano-1-(3-trifluoromethoxybenzyl)-1H-indole-2-carboxylic acid (1-hydroxy-cyclopentylmethyl)amide] | 1 to 10 nM
7 | CN1CCN(c2cccc(Cn3c(C(=O)NC[C@H]4CCCC[C@@H]4O)cc4cc(C#N)ccc43)c2)CC1 (relative stereo) [Example 47, trans-5-Cyano-1-[3-(4-methyl-piperazin-1-yl)-benzyl]-1H-indole-2-carboxylic acid (2-hydroxy-cyclohexylmethyl)amide] | 10 to 100 nM
8 | COc1ccc(OC(F)(F)F)cc1Cn1c(C(=O)NCC(C)(C)CO)cc2cc(C#N)ccc21 [Example 22, 5-Cyano-1-(2-methoxy-5-trifluoromethoxybenzyl)-1H-indole-2-carboxylic acid (3-hydroxy-2,2-dimethylpropyl)amide] | 1 to 10 nM
9 | N#Cc1ccc2c(c1)cc(C(=O)NCC1(O)CCCCC1)n2Cc1cccc(OC(F)(F)F)c1 [Example 60, 5-Cyano-1-(3-trifluoromethoxybenzyl)-1H-indole-2-carboxylic acid (1-hydroxy-cyclohexylmethyl)amide] | 1 to 10 nM
10 | CC(O)(CCNC(=O)c1cc2cc(C#N)ccc2n1Cc1cccc(OC(F)(F)F)c1)C(F)(F)F (stereo not shown) [Example 71, 5-Cyano-1-(3-trifluoromethoxybenzyl)-1H-indole-2-carboxylic acid (4,4,4-trifluoro-3-hydroxy-3-methylbutyl)amide] | 1 to 10 nM
